According to patent US8288424B2, “Substituted tetrahydroimidazopyridine compounds and the use thereof in the treatment of pain and other conditions” (Gruenenthal GmbH, priority 2008, dated 2012):

Target: T1, KCNQ2/3 channels (Homo sapiens, UniProt O43525+O43526)
T1 construct: expressed in transfected cells; host or cells: CHO-K1
Experiment: Fluorescence assay using a voltage-sensitive dye
Format: cell-based
Conditions: 10 μmol test substance; CHO-K1 cells expressing KCNQ2/3 channels; agonistic activity; read-out: % Stimulation [10 μmol] Average
Procedure: Fluorescence Assay Using a Voltage-Sensitive Dye
Human CHO-K1 cells expressing KCNQ2/3 channels are cultivated adherently at 37° C., 5% CO2 and 95% humidity in cell culture bottles (e.g. 80 cm^2 TC flasks, Nunc) with MEM Alpha Medium (1×, liquid, Invitrogen, #22571), 10% foetal calf serum (FCS) (Invitrogen, #10270-106, heat-inactivated) and the necessary selection antibiotics. Before being spread out for the measurements, the cells are washed with a 1×DPBS buffer without Ca^2+/Mg^2+ (e.g. Invitrogen, #14190-094) and detached from the bottom of the culture vessel by means of Accutase (PAA Laboratories, #L11-007) (incubation with Accutase for 15 min at 37° C.). The cell count then present is determined using a CASY™ cell counter (TCC model, Schärfe System) in order subsequently to apply 20,000 cells/well/100 μl of the described nutrient medium to 96-well measuring plates of the Corning™ CellBIND™ type (flat clear-bottom black polystyrene microplates, #3340). Incubation is then carried out for one hour at room temperature, without gassing or adjusting the humidity, followed by incubation for 24 hours at 37° C., 5% CO2 and 95% humidity.
The voltage-sensitive fluorescent dye from the Membrane Potential Assay Kit (Red bulk format part R8123 for FLIPR, Molecular Devices™) is prepared by dissolving the contents of a vessel of Membrane Potential Assay Kit Red Component A in 200 ml of extracellular buffer (ES buffer, 120 mM NaCl, 1 mM KCl, 10 mM HEPES, 2 mM CaCl2, 2 mM MgCl2, 10 mM glucose; pH 7.4). After removal of the nutrient medium, the cells are washed with 200 μl of ES buffer, then covered with a layer of 100 μl of the dye solution prepared above and incubated for 45 min at room temperature with exclusion of light.
The fluorescence measurements are carried out with a BMG Labtech FLUOstar™ or BMG Labtech POLARstar™ instrument (525 nm excitation, 560 nm emission, bottom-read mode). After incubation of the dye, 50 μl of the substances to be tested in the desired concentrations, or 50 μl of ES buffer for control purposes, are introduced into separate cavities of the measuring plate and incubated for 30 min at room temperature whilst being shielded from light. The fluorescence intensity of the dye is then measured for 5 min and the fluorescence value F1 of each well is thus determined at a given, constant time. 15 μl of a […] KCl solution ([…]) are then added to each well. The change in fluorescence is subsequently measured until all relevant measured values have been obtained (mainly 5-30 min). At a given time after KCl application, a fluorescence value F2 is determined, in this case at the time of the fluorescence peak.
For calculation, the fluorescence intensity F2 is compared with the fluorescence intensity F1, and the agonistic activity of the target compound on the potassium channel is determined therefrom. F2 and F1 are calculated as follows:
[formula] In order to determine whether a substance has an agonistic activity,
[formula] for example, can be compared with
[formula] of control cells.
[formula] is determined by adding to the reaction batch only the buffer solution instead of the substance to be tested, determining the value F1K of the fluorescence intensity, adding the potassium ions as described above and measuring a value F2K of the fluorescence intensity. Then F2K and F1K are calculated as follows:
[formula] A substance has an agonistic activity on the potassium channel when
[formula] is greater than
[formula] Independently of the comparison of
[formula] it is also possible to conclude that a target compound has an agonistic activity if an increase in
[formula] is to be observed as the dosage of the target compound increases. Calculations of EC50 and IC50 values are carried out with the aid of Prism 4 software (GraphPad Software™).

SMILES | activation at 10 µM
CCOC(=O)C1CCCN(C(=O)c2cn3c(n2)CCC(c2ccc(Oc4ccccc4)cc2)C3)C1 (stereo not shown) [Compound 22, Ethyl 1-(6-(4-phenoxyphenyl)-5,6,7,8-tetrahydroimidazo[1,2-a]pyridine-2-carbonyl)piperidine-3-carboxylate] | 18%
COc1ccc(F)cc1C1CCc2nc(C(=O)N3CCC(Cc4ccccc4)CC3)cn2C1 (stereo not shown) [Compound 8, (4-Benzylpiperidin-1-yl)(6-(5-fluoro-2-methoxyphenyl)-5,6,7,8-tetrahydroimidazo[1,2-a]pyridin-2-yl)methanone] | 29.1%
CC1(C)CC2CC(C)(CN2C(=O)c2cn3c(n2)CCC(c2ccccc2)C3)C1 (stereo not shown) [Compound 3, (6-Phenyl-5,6,7,8-tetrahydroimidazo[1,2-a]pyridin-2-yl)(1,3,3-trimethyl-6-azabicyclo[3.2.1]octan-6-yl)methanone] | 16.7%
CCc1ccc(C2CCc3nc(C(=O)N4CCCC4)cn3C2)cc1 (stereo not shown) [Compound 37, (6-(4-Ethylphenyl)-5,6,7,8-tetrahydroimidazo[1,2-a]pyridin-2-yl)(pyrrolidin-1-yl)methanone] | 15.5%
O=C(c1cn2c(n1)CCC(c1cc(C(F)(F)F)cc(C(F)(F)F)c1)C2)N1CCCC1 (stereo not shown) [Compound 30, (6-(3,5-Bis(trifluoromethyl)phenyl)-5,6,7,8-tetrahydroimidazo[1,2-a]pyridin-2-yl)(pyrrolidin-1-yl)methanone] | 20.9%
COc1c(C)cc(C2CCc3nc(C(=O)NCc4cccc(C(F)(F)F)c4)cn3C2)cc1C (stereo not shown) [Compound 17, 6-(4-Methoxy-3,5-dimethylphenyl)-N-(3-(trifluoromethyl)benzyl)-5,6,7,8-tetrahydroimidazo[1,2-a]pyridine-2-carboxamide] | 18.5%
COc1ccc(N2CCN(C(=O)c3cn4c(n3)CCC(c3cc(C)c(OC)c(C)c3)C4)CC2)cc1 (stereo not shown) [Compound 44, (6-(4-Methoxy-3,5-dimethylphenyl)-5,6,7,8-tetrahydroimidazo[1,2-a]pyridin-2-yl)(4-(4-methoxyphenyl)piperazin-1-yl)methanone] | 27.5%
O=C(NCc1ccc2c(c1)OCO2)c1cn2c(n1)CCC(c1cc(C(F)(F)F)cc(C(F)(F)F)c1)C2 (stereo not shown) [Compound 42, N-(Benzo[d][1,3]dioxol-5-ylmethyl)-6-(3,5-bis(trifluoromethyl)phenyl)-5,6,7,8-tetrahydroimidazo[1,2-a]pyridine-2-carboxamide] | 18.1%
O=C(c1cn2c(n1)CCC(c1cc(F)ccc1F)C2)N1CCCC1 (stereo not shown) [Compound 36, (6-(2,5-Difluorophenyl)-5,6,7,8-tetrahydroimidazo[1,2-a]pyridin-2-yl)(pyrrolidin-1-yl)methanone] | 21.7%
COc1c(C)cc(C2CCc3nc(C(=O)NCc4ccccc4)cn3C2)cc1C (stereo not shown) [Compound 5, N-Benzyl-6-(4-methoxy-3,5-dimethylphenyl)-5,6,7,8-tetrahydroimidazo[1,2-a]pyridine-2-carboxamide] | 15.5%

Continued, values first:

activation at 10 µM | SMILES
29.7% | Cc1cc(C)cc(C(C)NC(=O)c2cn3c(n2)CCC(c2ccc(F)c(C)c2)C3)c1 (stereo not shown) [Compound 78, N-(1-(3,5-Dimethylphenyl)ethyl)-6-(4-fluoro-3-methylphenyl)-5,6,7,8-tetrahydroimidazo[1,2-a]pyridine-2-carboxamide]
37.9% | Cc1cc(C2CCc3nc(C(=O)N4CC5(C)CC4CC(C)(C)C5)cn3C2)ccc1F (stereo not shown) [Compound 84, (6-(4-Fluoro-3-methylphenyl)-5,6,7,8-tetrahydroimidazo[1,2-a]pyridin-2-yl)(1,3,3-trimethyl-6-azabicyclo[3.2.1]octan-6-yl)methanone]
125% | O=C(c1cn2c(n1)CCC(c1ccc(F)c(F)c1)C2)N1CCN(c2cccc(C(F)(F)F)c2)CC1 (stereo not shown) [Compound 79, (6-(3,4-Difluorophenyl)-5,6,7,8-tetrahydroimidazo[1,2-a]pyridin-2-yl)(4-(3-(trifluoromethyl)phenyl)piperazin-1-yl)methanone]
127% | Cc1cccc(C2CCc3nc(C(=O)N4CCN(c5cccc(C(F)(F)F)c5)CC4)cn3C2)c1 (stereo not shown) [Compound 75, (6-m-Tolyl-5,6,7,8-tetrahydroimidazo[1,2-a]pyridin-2-yl)(4-(3-(trifluoromethyl)phenyl)piperazin-1-yl)methanone]
15.1% | COc1c(C)cc(C2CCc3nc(C(=O)NCc4ccc(F)cc4)cn3C2)cc1C (stereo not shown) [Compound 49, N-(4-Fluorobenzyl)-6-(4-methoxy-3,5-dimethylphenyl)-5,6,7,8-tetrahydroimidazo-[1,2-a]pyridine-2-carboxamide]
33.3% | Cc1cc(C2CCc3nc(C(=O)N4CCC(C(c5ccccc5)c5ccccc5)CC4)cn3C2)ccc1F (stereo not shown) [Compound 67, (4-Benzhydrylpiperidin-1-yl)(6-(4-fluoro-3-methylphenyl)-5,6,7,8-tetrahydroimidazo[1,2-a]pyridin-2-yl)methanone]
123% | Cc1cccc(C2CCc3nc(C(=O)N4CCC(Cc5ccccc5)CC4)cn3C2)c1 (stereo not shown) [Compound 70, (4-Benzylpiperidin-1-yl)(6-m-tolyl-5,6,7,8-tetrahydroimidazo[1,2-a]pyridin-2-yl)methanone]

Same assay, conditions: CHO-K1 cells expressing KCNQ2/3 channels; agonistic activity

SMILES | EC50
O=C(NCc1cccnc1)c1cn2c(n1)CCC(c1ccc(Oc3ccccc3)cc1)C2 (stereo not shown) [Compound 24, 6-(4-Phenoxyphenyl)-N-(pyridin-3-ylmethyl)-5,6,7,8-tetrahydroimidazo[1,2-a]pyridine-2-carboxamide] | 6.14 µM
CCOC(=O)C1CCN(C(=O)c2cn3c(n2)CCC(c2ccc(Oc4ccccc4)cc2)C3)CC1 (stereo not shown) [Compound 20, Ethyl 1-(6-(4-phenoxyphenyl)-5,6,7,8-tetrahydroimidazo[1,2-a]pyridine-2-carbonyl)piperidine-4-carboxylate] | 11.6 µM
CC(=O)N1CCN(C(=O)c2cn3c(n2)CCC(c2ccc(Oc4ccccc4)cc2)C3)CC1 (stereo not shown) [Compound 23, 1-(4-(6-(4-Phenoxyphenyl)-5,6,7,8-tetrahydroimidazo[1,2-a]pyridine-2-carbonyl)piperazin-1-yl)ethanone] | 5.81 µM

Results, then the compound that gave them:

EC50 | SMILES
1.2 µM | Cc1cc(C2CCc3nc(C(=O)NC(C)CCc4cccc(C(F)(F)F)c4)cn3C2)ccc1F (stereo not shown) [Compound 86, 6-(4-Fluoro-3-methylphenyl)-N-(4-(3-(trifluoromethyl)phenyl)butan-2-yl)-5,6,7,8-tetrahydroimidazo[1,2-a]pyridine-2-carboxamide]
7.98 µM | CCOc1ccccc1N1CCN(C(=O)c2cn3c(n2)CCC(c2cccc(C)c2)C3)CC1 (stereo not shown) [Compound 45, (4-(2-Ethoxyphenyl)piperazin-1-yl)(6-m-tolyl-5,6,7,8-tetrahydroimidazo[1,2-a]pyridin-2-yl)methanone]
4.46 µM | Cc1cc(C2CCc3nc(C(=O)N4CCN(c5cccc(C(F)(F)F)c5)CC4)cn3C2)ccc1F (stereo not shown) [Compound 58, (6-(4-Fluoro-3-methylphenyl)-5,6,7,8-tetrahydroimidazo[1,2-a]pyridin-2-yl)(4-(3-(trifluoromethyl)phenyl)piperazin-1-yl)methanone]
6.5 µM | Cc1cc(C2CCc3nc(C(=O)N4CCN(c5cccc(F)c5)CC4)cn3C2)ccc1F (stereo not shown) [Compound 83, (6-(4-Fluoro-3-methylphenyl)-5,6,7,8-tetrahydroimidazo[1,2-a]pyridin-2-yl)(4-(3-fluorophenyl)piperazin-1-yl)methanone]
2.45 µM | COc1c(C)cc(C2CCc3nc(C(=O)N4CCN(c5cccc(C(F)(F)F)c5)CC4)cn3C2)cc1C (stereo not shown) [Compound 54, (6-(4-Methoxy-3,5-dimethylphenyl)-5,6,7,8-tetrahydroimidazo[1,2-a]pyridin-2-yl)(4-(3-(trifluoromethyl)phenyl)piperazin-1-yl)methanone]
